Key:
Assay type in all cases: functional, organism-based
Plasmodium falciparum [1] = assay: Antimalarial activity after 96hrs against Plasmodium falciparum GCO3 C2 mutant CRT/MDR1 by [3H]hypoxanthine uptake
Plasmodium falciparum [2] = assay: Antimalarial activity after 96 hrs against Plasmodium falciparum GCO3 C4 mutant CRT/MDR1 by [3H]hypoxanthine uptake
Plasmodium falciparum [3] = assay: Antimalarial activity after 96 hrs against Plasmodium falciparum GCO3 C6 mutant CRT/MDR1 by [3H]hypoxanthine uptake
Plasmodium falciparum [4] = assay: Antimalarial activity after 96 hrs against Plasmodium falciparum GCO3 SDD mutant CRT/MDR1 by [3H]hypoxanthine uptake
Plasmodium falciparum [5] = assay: Antimalarial activity after 96 hrs against Plasmodium falciparum GCO3 SND mutant CRT/MDR1 by [3H]hypoxanthine uptake
Plasmodium falciparum [6] = assay: Antimalarial activity after 96 hrs against Plasmodium falciparum GCO3 CDY mutant CRT/MDR1 by [3H]hypoxanthine uptake
Plasmodium falciparum [7] = assay: Antimalarial activity after 96 hrs against Plasmodium falciparum 3BA6 by [3H]hypoxanthine uptake
Plasmodium falciparum [8] = assay: Antimalarial activity against Plasmodium falciparum 3BA6 SDD with CRT and MDR1 mutation after 96 hrs in [3H]hypoxanthine uptake; details: 3BA6, MDR1
Plasmodium falciparum [9] = assay: Antimalarial activity after 96 hrs against Plasmodium falciparum 3BA6 SND mutant CRT/MDR1 by [3H]hypoxanthine uptake; details: 3BA6, MDR1
Plasmodium falciparum [10] = assay: Antimalarial activity after 96 hrs against Plasmodium falciparum 3BA6 CDY mutant CRT/MDR1 by [3H]hypoxanthine uptake; details: 3BA6, MDR1
Plasmodium falciparum [11] = assay: Antimalarial activity after 96 hrs against azithromycin-resistant Plasmodium falciparum Dd2 by [3H]hypoxanthine uptake
Plasmodium falciparum [12] = assay: Antimalarial activity after 96 hrs against azithromycin-resistant Plasmodium falciparum 7G8 by [3H]hypoxanthine uptake
Plasmodium falciparum [13] = assay: Antimalarial activity after 96 hrs against Plasmodium falciparum 7G8 C1 mutant CRT/MDR1 by [3H]hypoxanthine uptake; details: 7G8, MDR1
Plasmodium falciparum [14] = assay: Antimalarial activity after 96 hrs against Plasmodium falciparum Dd2 C1 mutant CRT/MDR1 by [3H]hypoxanthine uptake
Plasmodium falciparum [15] = assay: Antimalarial activity after 48 hrs against Plasmodium falciparum 7G8 by [3H]hypoxanthine uptake
Plasmodium falciparum [16] = assay: Antimalarial activity after 96 hrs against Plasmodium falciparum Dd2 by [3H]hypoxanthine uptake
Plasmodium falciparum [17] = assay: Antimalarial activity after 48 hrs against Plasmodium falciparum Dd2 by [3H]hypoxanthine uptake
Plasmodium falciparum [18] = assay: Antimalarial activity after 48 hrs against Plasmodium falciparum GCO3 by [3H]hypoxanthine uptake
Plasmodium falciparum [19] = assay: Antimalarial activity after 96hrs against Plasmodium falciparum 7G8 by [3H]hypoxanthine uptake
Plasmodium falciparum [20] = assay: Antimalarial activity after 96 hrs against Plasmodium falciparum GCO3 by [3H]hypoxanthine uptake
Plasmodium falciparum [21] = assay: Antimalarial activity after 96 hrs against Plasmodium falciparum Dd2 T76K1 mutant CRT/MDR1 by [3H]hypoxanthine uptake
Plasmodium falciparum [22] = assay: Antimalarial activity after 96 hrs against Plasmodium falciparum 7G8 T76K1 mutant CRT/MDR1 by [3H]hypoxanthine uptake; details: 7G8, MDR1

Structure (SMILES)	IC50 (Plasmodium falciparum [11]) [nM]	IC50 (Plasmodium falciparum [12]) [nM]	IC50 (Plasmodium falciparum [15]) [nM]	IC50 (Plasmodium falciparum [16]) [nM]	IC50 (Plasmodium falciparum [17]) [nM]	IC50 (Plasmodium falciparum [18]) [nM]	IC50 (Plasmodium falciparum [19]) [nM]	IC50 (Plasmodium falciparum [20]) [nM]	also measured
CC[C@H]1OC(=O)[C@H](C)[C@@H](O[C@H]2C[C@@](C)(OC)[C@@H](O)[C@H](C)O2)[C@H](C)[C@@H](O[C@@H]2O[C@H](C)C[C@H](N(C)C)[C@H]2O)[C@](C)(O)C[C@@H](C)CN(C)[C@H](C)[C@@H](O)[C@]1(C)O [AZITHROMYCIN]	1940	3970	15700	103	3460	22600	228	43.3	IC50 (Plasmodium falciparum [1]): 48 nM; IC50 (Plasmodium falciparum [2]): 66.7 nM; IC50 (Plasmodium falciparum [3]): 76.7 nM; IC50 (Plasmodium falciparum [4]): 63.3 nM; IC50 (Plasmodium falciparum [5]): 47.8 nM; IC50 (Plasmodium falciparum [6]): 70.2 nM; IC50 (Plasmodium falciparum [7]): 180 nM; IC50 (Plasmodium falciparum [8]): 155 nM; IC50 (Plasmodium falciparum [9]): 158 nM; IC50 (Plasmodium falciparum [10]): 194 nM; IC50 (Plasmodium falciparum [13]): 142 nM; IC50 (Plasmodium falciparum [14]): 95.7 nM; IC50 (Plasmodium falciparum [21]): 122 nM; IC50 (Plasmodium falciparum [22]): 115 nM
C[C@H]1c2cccc(O)c2C(=O)C2=C(O)[C@]3(O)C(=O)C(C(N)=O)=C(O)[C@@H](N(C)C)[C@@H]3[C@@H](O)[C@@H]21 [DOXYCYCLINE]	302	603		432			1440		
CC[C@H]1OC(=O)[C@H](C)[C@@H](O[C@H]2C[C@@](C)(OC)[C@@H](O)[C@H](C)O2)[C@H](C)[C@@H](O[C@@H]2O[C@H](C)C[C@H](N(C)C)[C@H]2O)[C@](C)(O)C[C@@H](C)C(=O)[C@H](C)[C@@H](O)[C@]1(C)O [ERYTHROMYCIN]	20300	39500		9400			34700		
CN(C)[C@@H]1C(O)=C(C(N)=O)C(=O)[C@@]2(O)C(O)=C3C(=O)c4c(O)cccc4[C@@](C)(O)[C@H]3C[C@@H]12 [TETRACYCLINE]	324	365		397			697		
C=C(NC(=O)C(=C)NC(=O)c1csc(C2=N[C@@H]3c4csc(n4)[C@H]4NC(=O)c5csc(n5)[C@H]([C@](C)(O)[C@@H](C)O)NC(=O)[C@H]5CSC(=N5)/C(=C/C)NC(=O)[C@H]([C@@H](C)O)NC(=O)c5csc(n5)[C@]3(CC2)NC(=O)[C@H](C)NC(=O)C(=C)NC(=O)[C@H](C)NC(=O)[C@H]([C@@H](C)CC)N[C@@H]2C=Cc3c([C@H](C)O)cc(nc3[C@H]2O)C(=O)O[C@@H]4C)n1)C(N)=O [THIOSTREPTON]	175	217	688	292	2110	2280	555	916	
Oc1cc(Cl)ccc1Oc1ccc(Cl)cc1Cl [TRICLOSAN]			774	4190	6260	2710	424	1530	
